Earlier results in US11058674B2 (priority 2016, dated 2021).
Where two headings read alike, the source gives them in different places.

How the values were obtained:
mouse [1] = tested on: mouse; parameters: key to Conditioned place preference Relapse: ∘: Effective; conditions: for CPP acquisition caused by cocaine / CPP expression caused by cocaine: N/OFQ: intraventricular administration to a mouse
mouse [2] = tested on: mouse; parameters: key: ∘: Effective; x: Ineffective; conditions: cocaine addiction
[3] = parameters: key: ∘: Effective; conditions: alcohol addiction
[4] = parameters: key: ∘: Effective; conditions: alcohol addiction; remark: listed apart in the source
[5] = believed, from literature
rat = tested on: rat; parameters: key to Self-administration Seeking behavior: ∘: Effective; x: Ineffective
mouse [6] = tested on: mouse; parameters: key: ∘: Effective; conditions: cocaine addiction

Row | Molecule | CPP acquisition caused by cocaine (mouse [1]) | Conditioned place preference Acquisition (mouse [2]) | Self-administration Seeking behavior [3] | Self-administration Uptake behavior [3] | Conditioned place preference Acquisition [4] | Conditioned place preference Expression [4] | Conditioned place preference Relapse [4] | CPP expression caused by cocaine (mouse [1]) | further results
1 | O=C1Cc2ccccc2N1C1CCN(C2CCC3CCCc4cccc2c43)CC1 (centres unmarked) [AT-202, 1-[1-(2,3,3a,4,5,6-hexahydro-1H-phenalen-1-yl)piperidin-4-yl]-indolin-2-one] | does not affect | x ^20) | – | – | – | – | – | – | relapse of CPP caused by a stress (mouse [1]; cocaine CPP): suppresses; Conditioned place preference Relapse (mouse [1]; cocaine addiction): ∘ ^20)
2 | CNC(=O)Cn1c(=O)n(C2CCN([C@@H]3Cc4cccc5cccc3c45)CC2)c2ccccc21.Cl.O [MT-7716, (R)-2-{3-[1-(acenaphthen-1-yl)piperidin-4-yl]-2-oxo-2,3-dihydro-1H-benzimidazol-1-yl}-N-methylacetamide hydrochloride monohydrate] | – | – | ∘ ^12) | ∘ ^11) | – | – | – | – | –
3 | Cl.O=C1NCN(c2ccccc2)C12CCN([C@H]1CC[C@@H]3CCCc4cccc1c43)CC2 [Ro64-6198, (1S,3aS)-8-(2,3,3a,4,5,6-hexahydro-1H-phenalen-1-yl)-1-phenyl-1,3,8-triaza-spiro[4.5]decan-4-one hydrochloride] | – | – | – | ∘ ^10) | ∘ ^13) | ∘ ^13) | ∘ ^13) | – | –
4 | Cl.O=C1NCN(c2ccccc2)C12CCN(C1Cc3cccc4cccc1c34)CC2 (centres unmarked) [Ro65-6570, 8-acenaphthen-1-yl-phenyl-1,3,8-triaza-spiro[4.5]decan-4-one hydrochloride] | does not affect | x ^19) | – | – | – | – | – | does not affect | Conditioned place preference Expression (mouse [2]): x ^18)
5 | Cc1ccccc1C(c1ccccc1C)N1C2CCC1CC(O)(c1ccccc1)C2 (centres unmarked) [SCH221510] | – | – | – | – | – | – | – | – | migration to brain [5]: low migration to brain
6 | N/OFQ: Endogenous ligands of the NOP receptor, named nociceptin and orphanin FQ | blocks | – | ∘ ^9) | ∘ ^9) | ∘ ^13) | ∘ ^13) | ∘ ^13) | blocks | Self-administration Seeking behavior (rat; cocaine addiction): x ^16); cocaine seeking behavior induced by a stress after the extinction of the cocaine self-administration (rat; rat): does not suppress; Conditioned place preference Acquisition (mouse [6]): ∘ ^17); Conditioned place preference Expression (mouse [6]): ∘ ^18)
